Results published in PMC5706701, “Development of a homogenous high-throughput assay for inositol hexakisphosphate kinase 1 activity” (PLoS ONE, 2017).
Structures can show the parent of a compound that is named as a salt.

Molecular target: T1, Human IP6K1 (Homo sapiens, UniProt Q92551)
T1 construct: GST (N, cleaved yes); made in house; host or cells: C43 E. coli, pGEX-6P-2
Experiment: IP6K1 high-throughput screen of the Sigma LOPAC (ADP-Glo Max, single point);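 note: final compound concentration 10µM in 5% DMSO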
Type: biochemical

[1] = LOPAC single-point screen, ADP-Glo Max luminescence raw signal per well
[2] = LOPAC single-point screen, Z-score relative to plate average and StDev
[3] = Sigma LOPAC single-point screen, ADP-Glo Max raw signal per well
[4] = Sigma LOPAC single-point screen, Z-score from plate average and StDev
[5] = LOPAC single-point screen, ADP-Glo Max raw signal per well
[6] = LOPAC single-point screen, Z-score from raw signal with plate average and StDev
[7] = LOPAC single-point screen, Z-score from plate average and StDev
[8] = LOPAC single-point screen, Z-score against plate average and StDev

T1 sequence (Q92551 whole entry): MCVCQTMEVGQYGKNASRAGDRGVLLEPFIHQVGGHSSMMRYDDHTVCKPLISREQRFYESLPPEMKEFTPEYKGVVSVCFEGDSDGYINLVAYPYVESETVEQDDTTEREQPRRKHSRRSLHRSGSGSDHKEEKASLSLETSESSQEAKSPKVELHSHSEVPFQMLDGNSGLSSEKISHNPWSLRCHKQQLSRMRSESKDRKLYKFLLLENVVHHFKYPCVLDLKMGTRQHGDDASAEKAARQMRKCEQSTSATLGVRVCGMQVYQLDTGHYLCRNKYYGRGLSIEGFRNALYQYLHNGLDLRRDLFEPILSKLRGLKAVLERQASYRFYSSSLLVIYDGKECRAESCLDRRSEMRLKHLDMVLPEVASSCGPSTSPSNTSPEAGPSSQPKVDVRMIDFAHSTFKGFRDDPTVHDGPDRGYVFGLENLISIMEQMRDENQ

## N.N.[Cl][Pt][Cl] [Cisplatin]
[1]
  Raw Signal: 49642
[2]
  Z-score: -0.7984

## CCCCCCCCCCCCCCCCOCC(COCC(F)(F)F)OP(=O)(O)OC (stereo not drawn) [MJ33]
[3]
  Raw Signal: 57341
[4]
  Z-score: 0.4953

## COc1cc([C@@H]2c3cc4c(cc3[C@H](O)[C@H]3COC(=O)[C@H]23)OCO4)cc(OC)c1OC [Podophyllotoxin]
[1]
  Raw Signal: 50929
[2]
  Z-score: -0.5821

## Br.Oc1cc2c(c(Cl)c1O)CCNCC2c1ccccc1 (racemic) [(±)-6-Chloro-PB hydrobromide]
[5]
  Raw Signal: 55203
[6]
  Z-score: -0.1595

## CNCCCN1c2ccccc2CCc2ccccc21 [Desipramine hydrochloride]
[1]
  Raw Signal: 49945
[2]
  Z-score: -1.061

## CCCCS(=N)(=O)CCC(N)C(=O)O (racemic) [DL-Buthionine-[S,R]-sulfoximine]
[1]
  Raw Signal: 66724
[7]
  Z-score: 1.552

## CSc1nc(N)c2ncn([C@@H]3O[C@H](COP(=O)(O)OP(=O)(O)O)[C@@H](O)[C@H]3O)c2n1.[Na].[Na].[Na]
[5]
  Raw Signal: 54295
[8]
  Z-score: -0.01655

## COc1cc2c(cc1O)CC[C@@H]1[C@@H]2CC[C@]2(C)[C@@H](O)CC[C@@H]12 [2-methoxyestradiol]
[3]
  Raw Signal: 58620
[4]
  Z-score: 0.7102

## OC(CCN1CCCCC1)(c1ccccc1)C1CCCCC1 (stereo not drawn) [Trihexyphenidyl hydrochloride]
[3]
  Raw Signal: 57771
[4]
  Z-score: 0.3394

## CC(C)[C@@H]1NC(=O)[C@H](CCCCN)NC(=O)[C@@H](Cc2c[nH]c3ccccc23)NC(=O)[C@H](Cc2ccc(O)cc2)NC(=O)[C@H](C)N(C)C(=O)[C@H](Cc2ccccc2)NC1=O [Seglitide]
[5]
  Raw Signal: 55030
[6]
  Z-score: -0.1931

## CN1[C@@H]2CC[C@H]1C[C@@H](OC(=O)[C@H](CO)c1ccccc1)C2 [L-Hyoscyamine]
[1]
  Raw Signal: 63094
[7]
  Z-score: 1.61

## Nc1nc(Nc2ccccc2)nc2c1ncn2[C@@H]1O[C@H](CO)[C@@H](O)[C@H]1O [2-Phenylaminoadenosine]
[5]
  Raw Signal: 55292
[6]
  Z-score: -0.1422

## CC(C)NCC(O)c1ccc(O)c(O)c1.Cl (single isomer, unassigned; (-)) [(-)-Isoproterenol hydrochloride]
[1]
  Raw Signal: 50939
[2]
  Z-score: -0.5804

## C[C@]12CCC(=O)C=C1CC[C@@H]1[C@@H]2CC[C@@]2(C)[C@H]1CC[C@]2(O)C(=O)CO [Cortexolone]
[5]
  Raw Signal: 55575
[8]
  Z-score: -0.08719

## CC(C)(C)NCC(O)COc1cccc2[nH]c(=O)[nH]c12.Cl (racemic) [(±)-CGP-12177A hydrochloride]
[3]
  Raw Signal: 57688
[4]
  Z-score: 0.512

## O=C(O)CCC(=O)N1CCC[C@H]1C(=O)O [N-Succinyl-L-proline]
[5]
  Raw Signal: 55499
[6]
  Z-score: -0.102

## CN1C(=O)CC[C@H]1c1cccnc1 [(-)-Cotinine]
[2]
  Z-score: -0.59

## N[C@@H](CC(=O)O)C(=O)O [L-Aspartic acid]
[5]
  Raw Signal: 58223
[8]
  Z-score: 0.05458

## C=CC[N+](C)(C)c1ccc(CCC(=O)CCc2ccc([N+](C)(C)CC=C)cc2)cc1.[Br-].[Br-] [BW 284c51]
[5]
  Raw Signal: 57519
[8]
  Z-score: -0.06941

## Cl.NCC(O)c1cc(O)c(O)cc1F (stereo not drawn) [6-Fluoronorepinephrine hydrochloride]
[1]
  Raw Signal: 54023
[2]
  Z-score: -0.6852

## Oc1ccccc1O [Pyrocatechol]
[1]
  Raw Signal: 49319
[2]
  Z-score: -1.514

## CC(CN1c2ccccc2Sc2ccccc21)N(C)C (stereo not drawn) [Promethazine hydrochloride]
[3]
  Raw Signal: 57662
[4]
  Z-score: 0.5492

## CCCCC[C@H](CC(=O)NO)C(=O)N[C@H](C(=O)N1CCC[C@H]1CO)C(C)C [Actinonin]
[3]
  Raw Signal: 64769
[4]
  Z-score: 1.208

## COc1cc2nc(N3CCN(C(=O)c4ccco4)CC3)nc(N)c2cc1OC [Prazosin hydrochloride]
[5]
  Raw Signal: 56945
[8]
  Z-score: 0.179

## COc1ccc2c(c1)c(CC(=O)O)c(C)n2Cc1ccc(Cl)cc1
[3]
  Raw Signal: 64773
[4]
  Z-score: 1.208

## C[C@]12CC[C@@H]3c4ccc(O)cc4CC[C@H]3[C@@H]1CCC2=O [Estrone]
[5]
  Raw Signal: 53604
[6]
  Z-score: -0.3174

## CN(Cc1cnc2nc(N)nc(N)c2n1)c1ccc(C(=O)N[C@@H](CCC(=O)O)C(=O)O)cc1 [(-)Amethopterin]
[3]
  Raw Signal: 61362
[4]
  Z-score: 0.6074

## CCc1cc(Cl)c(O)c(C(=O)NC[C@@H]2CCCN2CC)c1OC.Cl [S-(-)-Eticlopride hydrochloride]
[1]
  Raw Signal: 63565
[7]
  Z-score: 1.706

## CCCNC[C@H](O)COc1ccccc1C(=O)CCc1ccccc1.Cl [(S)-(-)-propafenone hydrochloride]
[1]
  Raw Signal: 52495
[2]
  Z-score: -0.6856

## Cl.NCCS [Cysteamine hydrochloride]
[1]
  Raw Signal: 49886
[2]
  Z-score: -0.7574

## S=C=Nc1ccc2oc(C3=NCCN3)cc2c1 [BU99006]
[5]
  Raw Signal: 56328
[8]
  Z-score: 0.2358

## Cl.Clc1ccc(N2CCN(Cc3c[nH]c4ncccc34)CC2)cc1 [L-745,870 hydrochloride]
[5]
  Raw Signal: 55866
[8]
  Z-score: 0.2474

## Br.CN=c1nc(-c2ccccc2)n(-c2ccccc2)s1 [SCH-202676 hydrobromide]
[1]
  Raw Signal: 51247
[2]
  Z-score: -0.928

## NNCCc1ccccc1 [Phenelzine sulfate]
[3]
  Raw Signal: 58733
[4]
  Z-score: 0.5263

## CCN1CCC[C@H]1CNC(=O)c1c(OC)ccc(I)c1O [S(-)-IBZM]
[1]
  Raw Signal: 51122
[2]
  Z-score: -0.5497

## CC(CN(C)C)CN1c2ccccc2CCc2ccccc21 (stereo not drawn) [Trimipramine maleate]
[1]
  Raw Signal: 53117
[2]
  Z-score: -0.5647

## COc1ccc2c(c1)c(CC(=O)O)c(C)n2C(=O)c1ccccc1
[1]
  Raw Signal: 53454
[2]
  Z-score: -0.7854

## CN(C)CC[C@@H](c1ccc(Br)cc1)c1ccccn1 [(+)-Brompheniramine maleate]
[1]
  Raw Signal: 67936
[7]
  Z-score: 1.765

## CC(=O)[C@]1(O)Cc2c(O)c3c(c(O)c2[C@@H](O[C@H]2C[C@H](N)[C@H](O)[C@H](C)O2)C1)C(=O)c1ccccc1C3=O [Idarubicin]
[5]
  Raw Signal: 55218
[8]
  Z-score: 0.01035

## O=C(O)CCCCCCC1C(=O)NC(=O)N1CCC(O)C1CCCCC1 (stereo not drawn) [BW 245C]
[1]
  Raw Signal: 64569
[7]
  Z-score: 1.71

## Cc1cnc(C(=O)NCCc2ccc(S(=O)(=O)NC(=O)NC3CCCCC3)cc2)cn1 [Glipizide]
[3]
  Raw Signal: 60018
[4]
  Z-score: 0.9852

## CCCN(CCC)CCc1c[nH]c2ccc(C(N)=O)cc12.O=C(O)/C=C\C(=O)O
[3]
  Raw Signal: 60214
[4]
  Z-score: 1.025

## CCCCCCC(C(C)O)n1cnc2c(N)ncnc21.Cl (stereo not drawn)
[1]
  Raw Signal: 51235
[2]
  Z-score: -0.7986

## CC(N)c1cccc(Cl)c1Cl.Cl (racemic)
[5]
  Raw Signal: 54173
[6]
  Z-score: -0.2019

## CCCCS(=N)(=O)CC[C@H](N)C(=O)O (stereo partly drawn) [L-Buthionine-sulfoximine]
[3]
  Raw Signal: 61284
[4]
  Z-score: 0.5937

## CC(=O)[C@H]1CC[C@H]2[C@@H]3CC[C@H]4C[C@H](O)CC[C@]4(C)[C@H]3C(=O)C[C@]12C [5alpha-Pregnan-3alpha-ol-11,20-dione]
[3]
  Raw Signal: 56964
[4]
  Z-score: 0.4319

## Cl.NCCCCCCNS(=O)(=O)c1cccc2c(Cl)cccc12 [W-7 hydrochloride]
[5]
  Raw Signal: 57979
[8]
  Z-score: 0.01161

## CC(C)[C@@]1(NC(=O)[C@@H]2C=C3c4cccc5[nH]cc(c45)C[C@H]3N(C)C2)O[C@@]2(O)[C@@H]3CCCN3C(=O)[C@H](Cc3ccccc3)N2C1=O [Ergocristine]
[1]
  Raw Signal: 51436
[2]
  Z-score: -0.7577

## CN1CCN(C(=O)OC2c3nccnc3C(=O)N2c2ccc(Cl)cn2)CC1 (stereo not drawn) [Zopiclone]
[5]
  Raw Signal: 56506
[8]
  Z-score: 0.09368

## CCN1CCc2nc(N)oc2CC1.Cl.Cl [B-HT 933 dihydrochloride]
[5]
  Raw Signal: 56378
[6]
  Z-score: -0.2704

## CC[C@]1(O)C[C@H]2CN(CCc3c([nH]c4ccccc34)[C@@](C(=O)OC)(c3cc4c(cc3OC)N(C=O)[C@H]3[C@@](O)(C(=O)OC)[C@H](OC(C)=O)[C@]5(CC)C=CCN6CC[C@]43[C@@H]65)C2)C1 [Vincristine sulfate]
[3]
  Raw Signal: 57865
[4]
  Z-score: 0.3577

## COc1cc(CCN)ccc1O.Cl
[5]
  Raw Signal: 53513
[6]
  Z-score: -0.1479

## C[N+](C)(C)CC=O [Betaine aldehyde chloride]
[5]
  Raw Signal: 58689
[8]
  Z-score: 0.1367

## Cc1cc(N)c2ccccc2[n+]1CCCCCCCCCC[n+]1c(C)cc(N)c2ccccc21 [Dequalinium dichloride]
[5]
  Raw Signal: 55705
[8]
  Z-score: 0.1093

## C#CCN[C@H](C)Cc1ccccc1.Cl [R-(-)-Desmethyldeprenyl hydrochloride]
[1]
  Raw Signal: 52026
[2]
  Z-score: -0.6379

## COc1cc(OC)c(C=C2C(O)=Nc3ccccc32)c(OC)c1 [IC 261]
[5]
  Raw Signal: 54461
[6]
  Z-score: -0.3036

## CC(C)(C)NC[C@H](O)COc1nsnc1N1CCOCC1.O=C(O)/C=C\C(=O)O [S(-)-Timolol maleate]
[5]
  Raw Signal: 57221
[8]
  Z-score: 0.2326

## CN1CCc2cccc(Cl)c2CC1 [SKF 86466]
[5]
  Raw Signal: 54503
[6]
  Z-score: -0.2955

## NCCCCNCCCN [Spermidine trihydrochloride]
[3]
  Raw Signal: 60576
[4]
  Z-score: 0.8844

## CCCCCCCCCCCCCCCC(=O)NCCO [Palmitoylethanolamide]
[1]
  Raw Signal: 51451
[2]
  Z-score: -0.4944

## N[C@@H](CCCC(=O)O)C(=O)O [L-2-aminoadipic acid]
[5]
  Raw Signal: 59199
[8]
  Z-score: 0.2265

## R(-)-SCH-12679 maleate
[1]
  Raw Signal: 53479
[2]
  Z-score: -0.4944
